Measured values reported in patent US9957498B2, “Photoremovable protecting groups and uses thereof” (Iowa State University Research Foundation, Inc., priority 2015, dated 2018).

Experiments:
[1] = tested on: HeLa cells; assay: Trypan blue exclusion cytotoxicity assay, HeLa; type: cell-based, human; details: 20 μM, one hour incubation, ± standard deviation from two measurements
Procedure: (§1) Live cell experiments were performed with HeLa (human), GM07373 (bovine) or S2 (Drosophila) cells. HeLa and GM07373 cells were cultured in DMEM medium supplemented with 10% fetal bovine serum, […] (Fisher Scientific, Pittsburgh, Pa.) in a 37° C. water jacketed CO2 incubator (Thermo Scientific, Waltham, Mass.). HeLa and GM07373 cells were sub-cultured using 0.25% (w/v) trypsin-EDTA (Life Technology, Carlsbad, Calif.) solution every two days. Cells were sub-cultured onto custom-made glass bottom culture dishes two days before the microscopy experiment. On the day of the microscopy experiment, the growth media was replaced with 20 μM compound 12b in serum-free DMEM for one hour. Cells were rinsed with the imaging medium (pH=7.2, 155 mM NaCl, 5 mM KCl, 2 mM CaCl2, 1 mM MgCl2, 2 mM NaH2PO4, 10 mM HEPES and 10 mM Glucose) prior to collecting microscopy images. […]
(§2) HeLa, GM07373 or S2 cells were incubated with 20 μM of the compound 12b for an hour. Cytotoxicity of the compound was measured using trypan blue exclusion assays. […] The number of viable cells that excluded the dye was counted using a hemacytometer (Hausser Bright-Line, Hausser scientific, Horsham, Pa.) and an optical microscope.

[2] = tested on: GM07373 cells; assay: Trypan blue exclusion cytotoxicity assay, GM07373; type: cell-based, bovine; details: 20 μM, one hour incubation, ± standard deviation from two measurements
Procedure: as §1, §2

[3] = tested on: S2 cells; assay: Trypan blue exclusion cytotoxicity assay, S2; type: cell-based, Drosophila; details: 20 μM, one hour incubation, ± standard deviation from two measurements
Procedure: as §1, §2

[4] = UV-Vis spectroscopy: absorption maximum and extinction coefficient; type: physicochemical
Procedure: (§3) The observed substrate release rate as a function of photolysis time is quantified by the quantum efficiency parameter (ϵΦ), which is the product of the extinction coefficient at the irradiation wavelength (ϵ) and the quantum yield (Φ). Extinction coefficients for compounds 1-6 were determined by UV-Vis spectroscopy (see Table 1).

[5] = Quantum yield of photorelease of acetic acid (ferrioxalate actinometry, 532 nm laser, LC-UV); type: physicochemical; details: for Φ (quantum yield of acetic acid release): MeOH, 532 nm ND:YAG laser, LC-UV
Procedure: as §3
To compute the quantum yields of photorelease (Φ), the flux of a 532 nm laser excitation beam (ND:YAG, 1st harmonic) was determined using potassium ferrioxalate actinometry. Release of acetic acid as a function of laser irradiation time in methanol was followed by quantitative LC/UV methods known in the art. Each quantum yield reported is the average of 3 separate runs. […] Additionally, repeating the quantum yield measurement for compound 2 on a different day with a different laser power setting (in triplicate) gave an identical value for the quantum yield, indicating reproducibility.
All quantum yields were carried out using a liquid-phase potassium ferrioxalate actinometer. The actinometer was prepared by mixing three volumes of 1.5 M K2C2O4 solution with one volume of 1.5 M FeCl3 solution in water, and stirring in complete darkness. The precipitated K3Fe(C2O4)3.3H2O was then recrystallized three times from hot water and dried in a current of warm air. To prepare 1 L of 0.15M K3Fe(C2O4)3.3H2O solution, 73.68 g of the precipitate was dissolved in 800 mL water; 100 mL 1.0 N sulfuric acid was added and filled to the mark with water, again in complete darkness. For all quantitative work the preparation and manipulation of the ferrioxalate solutions must be carried out in a darkroom, using a red light. The light intensity in a photochemical reaction is determined by irradiating ferrioxalate solution and monitoring the subsequent change in absorbance at 510 nm. Irradiation was conducted using 532 nm excitation from a ND:YAG laser source (1st harmonic). Autopipettes were used to ensure all volumes were accurately measured.
For each actinometric measurement a methacrylate cuvette was filled with 3 mL of 0.15 M ferrioxalate solution. The cell was placed in the sample holder, stirred and irradiated for a set period of time (0, 0.25, 0.50, 0.75, 1, 2, 3 minutes). After the allocated irradiation time the solution was transferred into a 25 mL volumetric flask, to which was added in sequence 6 mL of a developer solution (0.05 mol % phenanthroline/0.75 M acetate/0.2 M sulfuric acid), 5 mL 1 M sodium fluoride solution in water. The sample was diluted to 25 mL with water, mixed and allowed to incubate for 10 minutes. After the incubation period was complete, 3 mL of sample was transferred into 1 cm methacrylate cuvette and the absorbance (at 510 nm) read using a spectrophotometer.
Using iron sulfate standard solutions between 1.6×10^−5 M to 9.6×10^−5 M, a standard curve based on absorbance of the ferrioxalate/phenanthroline complex at 510 nm was compiled and the irradiated samples absorbances were compared to yield the concentration iron (II) cleaved via photolysis within the timescale of experiment.
The flux of the laser was calculated the following equations:
[formula] where I is the flux (Einstein/L/s), Δn is the Fe^2+ photogenerated (mole), φ is the quantum yield at 532 nm, V1 is the irradiated volume (mL), and t=irradiation time (seconds);
[formula] where V2 is the volume taken from the irradiated sample (mL), V3 is the volume after dilution for concentration determination (mL), and CT is the concentration of Fe^2+ after dilution (M); and
[formula] where abs is the absorbance at 510 nm, ϵ is the molar absorptivity (M^−1 cm^−1) and l is the path length.
Due to the low absorbance of the potassium ferrioxalate solution at 532 nm, a correction was made to account for an absorbance less than 2 (multiplied the flux by 0.0967).
For each compound, a solution of 1000 ppm was prepared using 1 mg of sample and dissolving in 1 mL methanol. […]

[6] = Fluorescence emission of compound solutions; type: physicochemical
Text: FIG. 2 is a plot of normalized fluorescence as a function of wavelength for compounds 1-6 described herein.
See, e.g., Petr Klán et al., Chem. Rev. 113: 119-191 (2013), which is incorporated by reference as if fully set forth herein. Even thought the quantum yields for compounds 1-4 are lower than those for some o-nitrobenzyl photocaged structures, this lower quantum yield is compensated by the much higher extinction coefficients of the BODIPY chromophores compared to the o-nitrobenzyl chromophore, leading to reasonable quantum efficiencies. […] While not being bound by any particular theory, it is plausible that the higher quantum yield of compound 6 occurs because the iodine atoms promote intersystem crossing to a triplet state, which are usually longer lived than […]. Given that the triplet state of the corresponding carbocation is the computed ground state by ˜5 kcal/mol, it is certainly energetically reasonable that heterolysis could occur in the triplet excited state leading to the triplet “carbocation,” similar to the phenacyl photocage derivatives described by Givens et al., Can. J. Chem. 89: 364-384 (2011), which is incorporated by reference as if fully set forth herein.

Compound	% of Viable cells [1] [%]	% of Viable cells [2] [%]	% of Viable cells [3] [%]	λmax ([4]; Table 1) [nm]	ε ([4]; Table 1, extinction coefficient by UV-Vis spectroscopy) [M⁻¹ cm⁻¹]	ε ([4]; Table 2) [M⁻¹ cm⁻¹]	λmax ([4]; Table 2) [nm]	Φ (quantum yield of photorelease) ([5]; Table 1, acetic acid release, 532 nm laser, methanol, average of 3 runs)	εΦ (quantum efficiency) ([5]; Table 1, product of extinction coefficient and quantum yield) [M⁻¹ cm⁻¹]	εΦ (quantum efficiency) ([5]; Table 2) [M⁻¹ cm⁻¹]	Φ (quantum yield of acetic acid release) ([5]; Table 2, average of 3 runs)	λem ([6]; Table 1) [nm]	λem ([6]; Table 2) [nm]
3,5-Bis(4-(1,4,7,10-tetraoxaundecyl)styryl-1,7-dimethyl-8-(4-nitrobenzoato)pyrromethene fluoroborate [Compound 12b]	92 ± 5	92 ± 5	93 ± 2	–	–	–	–	–	–	–	–	–	–
8-Acetoxymethyl-1,3,5,7-tetramethyl pyrromethene fluoroborate [Compound 2]	–	–	–	515	71000	71000	515	9.9 ×10^−4	70	70	9.9 ×10^−4	526	526
COc1ccc(/C=C/c2cc(C)c3n2[B-](F)(F)[N+]2=C(C)C=C(C)C2=C3COC(C)=O)cc1 [Compound 7, 8-Acetoxymethyl-3-(4-methoxy)styryl-1,5,7-trimethyl pyrromethene fluoroborate]	–	–	–	–	–	61000	586	–	–	6.0	9.8 ×10^−4	–	607
CC(=O)OCC1=C2C(C)=CC(C)=[N+]2[B-](F)(F)n2c(C=Cc3ccc(N(C)C)cc3)cc(C)c21 [Compound 8, 8-Acetoxymethyl-3-(4-dimethylamino)styryl-1,5,7-trimethyl pyrromethene fluoroborate]	–	–	–	–	–	60000	633	–	–	4.1	6.9 ×10^−4	–	650
CC(=O)OCC1=C2C(C)=CC(C=Cc3ccccc3)=[N+]2[B-](F)(F)n2c(C=Cc3ccccc3)cc(C)c21 [Compound 9, 8-Acetoxymethyl-3,5-bisstyryl-1,7-dimethyl pyrromethene fluoroborate]	–	–	–	–	–	65000	640	–	–	2.9	4.5 ×10^−4	–	656
COc1ccc(/C=C/C2=[N+]3C(=C(COC(C)=O)c4c(C)cc(/C=C/c5ccc(OC)cc5)n4[B-]3(F)F)C(C)=C2)cc1 [Compound 10a, 8-Acetoxymethyl-3,5-bis(4-methoxy)styryl-1,7-dimethyl pyrromethene fluoroborate]	–	–	–	–	–	65000	661	–	–	2.7	4.1 ×10^−4	–	684
COCCOCCOCCOc1ccc(C=CC2=[N+]3C(=C(CO)c4c(C)cc(C=Cc5ccc(OCCOCCOCCOC)cc5)n4[B-]3(F)F)C(C)=C2)cc1 [Compound 11b, 3,5-Bis(4-(1,4,7,10-tetraoxaundecyl)styryl-1,7-dimethyl-8-hydroxymethylpyrromethene fluoroborate]	–	–	–	–	–	120000	667	–	–	–	–	–	–
